Experiments:
Format in all cases: in vivo, Male Wistar rats
remnant kidney (RK) rats [1] = test: Renal arteriolar morphology; settings: RK rats vs RK control group
Protocol: Male Wistar rats (295-340 g) were used to produce rats with remnant kidney (RK) as follows. […] Rats were then assigned to one of four treatment groups: Group 1, RK control rats (n=7); Group 2, RK+febuxostat (Fx) rats (n=8); Group 3, RK+oxonic acid (OA) rats (n=6); and Group 4, RK+OA+Fx (n=10). Oxonic acid (OA) (Sigma-Aldrich, St Louis Mo., USA), administered at 750 mg/kg body weight daily by oral gavage, was given starting the day after the 5⁄6 nephrectomy. Beginning immediately following the surgery, febuxostat was administered in drinking water at 30 mg/L (3-4 mg/kg/day), whereas the respective controls received only drinking water (with 3.5 mg/L of NaCl added to keep an equivalent salt concentration to the Fx-containing water). After the micropuncture study, kidneys were washed by perfusion with phosphate-buffered saline and then fixed with 4% paraformaldehyde. Renal biopsies were embedded in paraffin. Sections of 4-μm thick fixed tissue were stained with periodic acid Schiff (PAS) reagent and Masson's trichrome staining. Arteriolar morphology was assessed by indirect peroxidase immunostaining for alpha-smooth muscle actin (DAKO Corp, Carpinteria, Calif., USA). Renal sections incubated with normal rabbit serum were used as negative controls for immunostaining against alpha smooth-muscle actin. For each arteriole, the outline of the vessel and its internal lumen (excluding the endothelium) were generated using computer analysis to calculate the total medial area (outline inline), in 10 arterioles per biopsy. The media/lumen ratio was calculated by the outline/inline relationship (See, Sanchez-Lozada L G et al., “Mild hyperuricemia induces glomerular hypertension in normal rats”, Am J Physiol Renal Physiol 283:[…]-[…] (2002); Sanchez-Lozada L G, et al., “Mild hyperuricemia induces vasoconstriction and maintains glomerular hypertension in normal and remnant kidney rats,” Kidney Int 67:237-247 (2005), the contents of each are herein incorporated by reference). Quantifications were performed blinded.

remnant kidney (RK) rats [2] = test: Body weight, food and water intake in remnant kidney rats; settings: RK rats (RK + Fx or RK + OA group)
Protocol: Male Wistar rats (295-340 g) were used to produce rats with remnant kidney (RK) as follows. […] Rats were then assigned to one of four treatment groups: Group 1, RK control rats (n=7); Group 2, RK+febuxostat (Fx) rats (n=8); Group 3, RK+oxonic acid (OA) rats (n=6); and Group 4, RK+OA+Fx (n=10). Oxonic acid (OA) (Sigma-Aldrich, St Louis Mo., USA), administered at 750 mg/kg body weight daily by oral gavage, was given starting the day after the ⅚ nephrectomy. Beginning immediately following the surgery, febuxostat was administered in drinking water at 30 mg/L (3-4 mg/kg/day), whereas the respective controls received only drinking water (with 3.5 mg/L of NaCl added to keep an equivalent salt concentration to the Fx-containing water). All groups were treated for four weeks. Body weight (beginning just before surgery) and food and water intakes were measured daily. Systolic blood pressure, measured in conscious rats by a tail cuff sphygmomanometer, and plasma uric acid (UA) levels were measured at just before surgery (namely, at baseline) and at the end of the four weeks. Proteinuria was measured at baseline and at the end of two and four weeks. A renal micropuncture procedure along with systemic blood pressure monitoring under pentobarbital anesthesia was performed at the end of four weeks followed by morphologic evaluation of the renal preglomerular microvasculature. Food and water intake were determined daily. Systolic blood pressure (SBP) was measured by a tail-cuff sphygmomanometer using an automated system (XBP-100; Kent Scientific Co, Torrington, Conn., USA) in conscious animals. All animals were preconditioned for blood pressure measurements one week before each experiment. Plasma uric acid was quantified using a commercial kit (Diagnostic Chemicals Ltd, Charlottetown, PEI, Canada). Proteinuria was determined by turbidimetry by the method of trichloroacetic acid as described in Henry R J et al., “Turbidimetric determination of proteins with sulfosalicylic and tricholoroacetic acids”, Proc Soc Exp Biol Med 92:748-751 (1956), the contents of which are herein incorporated by reference.

remnant kidney (RK) rats [3] = test: Micropuncture procedure to assess glomerular hemodynamics
Protocol: Male Wistar rats (295-340 g) were used to produce rats with remnant kidney (RK) as follows. […] Rats were then assigned to one of four treatment groups: Group 1, RK control rats (n=7); Group 2, RK+febuxostat (Fx) rats (n=8); […] Oxonic acid (OA) (Sigma-Aldrich, St Louis Mo., USA), administered at 750 mg/kg body weight daily by oral gavage, was given starting the day after the 5⁄6 nephrectomy. […] All groups were treated for four weeks. Body weight (beginning just before surgery) and food and water intakes were measured daily. Systolic blood pressure, measured in conscious rats by a tail cuff sphygmomanometer, and plasma uric acid (UA) levels were measured at just before surgery (namely, at baseline) and at the end of the four weeks. Proteinuria was measured at baseline and at the end of two and four weeks. A renal micropuncture procedure along with systemic blood pressure monitoring under pentobarbital anesthesia was performed at the end of four weeks followed by morphologic evaluation of the renal preglomerular microvasculature. Animals were anesthetized with pentobarbital sodium (30 mg/kg, intraperitoneal (ip)) and placed on a thermoregulated table to maintain body temperature at 37° C. Trachea, jugular veins, femoral arteries and the left ureter were catheterized with polyethylene tubing (PE-240, PE-50, and PE-10). The left kidney was exposed, placed in a Lucite holder, sealed with agar, and covered with Ringer's solution. Mean arterial pressure (MAP) was monitored with a pressure transducer (Model p23 db; Gould, San Juan, Puerto Rico) connected to the catheter in the femoral artery and recorded on a polygraph (Grass Instruments, Quincy, Mass., USA). Blood samples were taken periodically and replaced with blood from a donor rat. Rats were maintained under euvolemic conditions by infusion of 10 mL/kg of body weight of isotonic rat plasma during surgery, followed by an infusion of 25%, polyfructosan, at 2.2 ml/h (Inutest; Fresenius Kabi, Linz, Austria). After 60 minutes, five to seven samples of proximal tubular fluid were obtained to determine flow rate and polyfructosan concentrations. Intratubular pressure under free-flow (FF) and stop-flow (SFP) conditions and peritubular capillary pressure (Pc) were measured in other proximal tubules with a servo-null device (Servo Nulling Pressure System; Instrumentation for Physiology and Medicine, San Diego, Calif., USA). Glomerular colloid osmotic pressure was estimated from protein concentrations obtained from blood of the femoral artery (Ca) and surface efferent arterioles (Ce). Polyfructosan was measured in plasma and urine samples by the anthrone-based technique described by Davidson and […] in “Simplification of the anthrone method for the determination of inulin in clearance studies,” J Lab Clin Med. 62:351-356 (1963), the contents of which are herein incorporated by reference. In brief, plasma samples were deproteinated first with trichloroacetic acid. After centrifugation, the supernatant was used for polyfructosan measurement. Polyfructosan concentrations in plasma and urine samples were assessed by the addition of anthrone reagent followed by incubation at 45° C. for 50 minutes and reading in a spectrophotometer set at wavelength of 620 nm. […] Total GFR was calculated using the following formula: GFR=(U×V)/P, where U is the polyfructosan concentration in urine, V is urine flow rate, and P is the polyfructosan concentration in plasma. The volume of fluid collected from individual proximal tubules was estimated from the length of the fluid column in a constant-bore capillary tube of known internal diameter. The concentration of tubular polyfructosan was measured by the microfluorometric method described by Vurek and Pegram in “Fluorometric method for the determination of nanogram quantities of inulin,” Anal Biochem 16:409-419 (1966), the contents of which are herein incorporated by reference. […]

remnant kidney (RK) rats [4] = test: Plasma uric acid in remnant kidney rats; settings: RK+OA rats, end of four weeks
Protocol: Male Wistar rats (295-340 g) were used to produce rats with remnant kidney (RK) as follows. […] Rats were then assigned to one of four treatment groups: Group 1, RK control rats (n=7); Group 2, RK+febuxostat (Fx) rats (n=8); Group 3, RK+oxonic acid (OA) rats (n=6); and Group 4, RK+OA+Fx (n=10). Oxonic acid (OA) (Sigma-Aldrich, St Louis Mo., USA), administered at 750 mg/kg body weight daily by oral gavage, was given starting the day after the ⅚ nephrectomy. Beginning immediately following the surgery, febuxostat was administered in drinking water at 30 mg/L (3-4 mg/kg/day), whereas the respective controls received only drinking water (with 3.5 mg/L of NaCl added to keep an equivalent salt concentration to the Fx-containing water). All groups were treated for four weeks. Body weight (beginning just before surgery) and food and water intakes were measured daily. Systolic blood pressure, measured in conscious rats by a tail cuff sphygmomanometer, and plasma uric acid (UA) levels were measured at just before surgery (namely, at baseline) and at the end of the four weeks. Proteinuria was measured at baseline and at the end of two and four weeks. A renal micropuncture procedure along with systemic blood pressure monitoring under pentobarbital anesthesia was performed at the end of four weeks followed by morphologic evaluation of the renal preglomerular microvasculature. Food and water intake were determined daily. Systolic blood pressure (SBP) was measured by a tail-cuff sphygmomanometer using an automated system (XBP-100; Kent Scientific Co, Torrington, Conn., USA) in conscious animals. […] Plasma uric acid was quantified using a commercial kit (Diagnostic Chemicals Ltd, Charlottetown, PEI, Canada). Proteinuria was determined by turbidimetry by the method of trichloroacetic acid as described in Henry R J et al., “Turbidimetric determination of proteins with sulfosalicylic and tricholoroacetic acids”, Proc Soc Exp Biol Med 92:748-751 (1956), the contents of which are herein incorporated by reference.

[5] = RK rats (RK + Fx or RK + OA group), end of four weeks

**Q.** Which results are given for `O=C(O)c1nc(=O)[nH]c(=O)[nH]1` [OA, oxonic acid, reference compound]?
**A.** Thickening of preglomerular vessels / afferent arteriole (in words) (remnant kidney (RK) rats [1]): developed additional thickening of the afferent arteriole; BW (remnant kidney (RK) rats [2]; End of Week 4): 328.5 ± 6.6 g; BW Gain (from baseline) (remnant kidney (RK) rats [2]; End of Week 4): 5.5 ± 10.3 g; Daily Food Intake (remnant kidney (RK) rats [2]; Week 1): 14.2 ± 2.1 g; Daily Water Intake (remnant kidney (RK) rats [2]; Week 1): 44.3 ± 3.5 mL; Daily Food Intake (remnant kidney (RK) rats [2]; Week 2): 19.7 ± 0.7 g; Daily Water Intake (remnant kidney (RK) rats [2]; Week 2): 58.6 ± 1.4 mL; Daily Food Intake (remnant kidney (RK) rats [2]; Week 3): 21.3 ± 1.0 g; Daily Water Intake (remnant kidney (RK) rats [2]; Week 3): 57.2 ± 2.6 mL; Daily Food Intake (remnant kidney (RK) rats [2]; Week 4): 20.7 ± 0.9 g; Daily Water Intake (remnant kidney (RK) rats [2]; Week 4): 48.6 ± 3.0 mL; GFR (remnant kidney (RK) rats [3]; [5]): 0.29 ± 0.06 mL/min; Kf (remnant kidney (RK) rats [3]; [5]): 0.027 ± 0.003 nL/s · mmHg; PGC (remnant kidney (RK) rats [3]; [5]): 64.4 ± 1.1 mmHg; QA (remnant kidney (RK) rats [3]; [5]): 170 ± 16 nL/min; SNGFR (remnant kidney (RK) rats [3]; [5]): 51.3 ± 4.8 nL/min; MAP (remnant kidney (RK) rats [3]; RK rats (RK + Fx or RK + OA group), end of four weeks, under anesthesia): 198 ± 10 mmHg; Glomerular plasma flow (in words) (remnant kidney (RK) rats [3]; RK+OA group): significant decrease; GFR (in words) (remnant kidney (RK) rats [3]; RK+OA rats vs RK control group): similarly low as in the RK control group; Single-nephron GFR (in words) (remnant kidney (RK) rats [3]; RK+OA rats vs RK control group): lower compared to the RK control group; Afferent resistance (in words) (remnant kidney (RK) rats [3]; RK+OA rats vs RK control rats): significantly elevated; Plasma uric acid relative to the RK control rats (in words) (remnant kidney (RK) rats [4]): increased significantly by over two-fold

From patent publication US20130143886A1, “METHODS FOR PRESERVING AND/OR INCREASING RENAL FUNCTION USING XANTHINE OXIDOREDUCTASE INHIBITORS” (priority 2006, published 2013)
